Data published in patent US6958355B2, “Materials and methods for the treatment of diabetes, hyperlipidemia, hypercholesterolemia, and atherosclerosis” (ARYx Therapeutics, Inc., priority 2000, dated 2005).

System: NIDDM KK-A^y male mice
Experiment: Activity on serum glucose and insulin levels in NIDDM KK-A^y male mice
Type: in vivo
Details: percent reduction relative to pre-treatment values, 10 mg/kg orally, twice a day, 5 consecutive days, blood sampled 90 minutes after the last dose
Text: Representative compounds were chosen and evaluated for activity on serum glucose and insulin levels in non-insulin dependent diabetic mellitus (NIDDM) KK-A^y male mice. Post-treatment data for each group were transferred to a percentage of pretreatment values and unpaired Student's t test was used for comparison between vehicle and test substance treated groups. […] The results are presented in Table XXI and in FIGS. 19 and 20.
Activity in NIDDM KK-A^y male mice. Non-insulin dependent diabetic mellitus male mice, weighing 50+/−5 g (9-10 weeks of age) were used. […] The test compounds 105, 115, and 155, and the positive control compound troglitazone were suspended in a 1% carboxymethylcellulose preparation and were given orally at a dose of 10 mg/kg, twice a day, for 5 consecutive days. Blood sampling was performed before the first dose and then 90 minutes after the last dose. Serum glucose and insulin levels were measured.

Cc1c(C)c2c(c(C)c1O)CCC(C)(COc1ccc(CC3SC(=O)NC3=O)cc1)O2 (centres unmarked) [Troglitazone, troglitazone]
Serum Glucose (%): 35%
Serum Insulin (%): 15%
